Converted amounts (≈) assume the structure as drawn. “And” between values parts separate entries of the source, which are not always exact repeats. Equal entries are not always repeated.
Assays:
Assay type in all cases: cell-based
B16-F10 murine melanoma = assay: in vitro cytotoxicity assay, B16-F10 murine melanoma; details: four-fold serial dilution, replicate determinations on separate lines; for IC50: Mus musculus, B16-F10, concentration required to inhibit cell growth by 50%; for IC50 B16-F10: concentration required to inhibit cell growth by 50%
Method: (§1) Representative compounds of the present invention were also evaluated in in vitro cytotoxicity assay against various murine and human tumor cell lines. The in vitro cytotoxicity assay involved growing various mammalian tumor cells, including human tumor cells, on microtitre plates employing established tissue culture methods. The concentration of each compound required to inhibit cell growth by 50% (IC50) was then determined by four-fold serial dilution technique. Tumor cells of the following types were employed for each compound tested: B16-F10 murine melanoma; Moser human colon; SW900 human lung; and two human colon tumor cell lines namely HCT-116, and HCT/VP35, the latter being resistant to etoposide (VP). […] The in vitro data may also be evaluated in terms of potency ratio which is defined as the ratio of IC50 against an etoposide-resistant cell-line to IC50 against an etoposide-sensitive cell-line.

HCT-116 = assay: in vitro cytotoxicity assay, HCT-116 human colon tumor; details: four-fold serial dilution, replicate determinations on separate lines; for IC50: Homo sapiens, HCT-116, concentration required to inhibit cell growth by 50%; for IC50 HCT-116: concentration required to inhibit cell growth by 50%
Method: as §1

HCT/VP35 = assay: in vitro cytotoxicity assay, HCT/VP35 human colon tumor resistant to etoposide; details: for IC50: Homo sapiens, HCT/VP35, etoposide-resistant line; for IC50 / IC50 HCT/VP35: concentration required to inhibit cell growth by 50%, four-fold serial dilution, replicate determinations on separate lines; for IC50 HCT/VP35: etoposide-resistant line; for potency ratio IC50 HCT/VP35 : IC50 HCT-116: ratio of IC50 against etoposide-resistant cell line to IC50 against etoposide-sensitive cell line, same experiment
Method: as §1

Moser human colon = assay: in vitro cytotoxicity assay, Moser human colon; details: concentration required to inhibit cell growth by 50%, four-fold serial dilution, replicate determinations on separate lines; for IC50: Homo sapiens
Method: as §1

SW900 human lung = assay: in vitro cytotoxicity assay, SW900 human lung; details: four-fold serial dilution, replicate determinations on separate lines; for IC50: Homo sapiens, SW900, concentration required to inhibit cell growth by 50%; for IC50 SW900: concentration required to inhibit cell growth by 50%
Method: as §1

SMILES	IC50 (B16-F10 murine melanoma) [µg/mL]	IC50 B16-F10 (B16-F10 murine melanoma)	IC50 (HCT-116) [µg/mL]	IC50 HCT-116 (HCT-116)	IC50 (HCT/VP35) [µg/mL]	IC50 (Moser human colon) [µg/mL]	IC50 Moser (Moser human colon)	IC50 (SW900 human lung) [µg/mL]	IC50 SW900 (SW900 human lung)	IC50 HCT/VP35 (HCT/VP35)	potency ratio IC50 HCT/VP35 : IC50 HCT-116 (HCT/VP35)
COc1cc([C@@H]2c3cc4c(cc3[C@@H](O[C@@H]3O[C@@H]5CO[C@@H](C)O[C@H]5[C@H](O)[C@H]3O)[C@@H](CO)[C@@H]2C(N)=O)OCO4)cc(OC)c1O (relative stereo) [Example 2, Naphtho[2,3-d]-1,3-dioxole-6-carboxamide, 5,6,7,8-tetrahydro-8-[(4,6-0-ethylidene-β-D-glucopyranosyl)oxy]-5-[(4-hydroxy-3,5-dimethoxy)phenyl]-7-(hydroxymethyl)-, [5Rα,6α,7β,8β(R*)]-]	70.6 (≈ 117 µM)	93.03 µg/mL (≈ 154 µM)	78.6 (≈ 130 µM)	96.28 µg/mL (≈ 159 µM)	> 250	107 (≈ 177 µM)	115.67 µg/mL (≈ 191 µM)	106 (≈ 175 µM)	120.54 µg/mL (≈ 199 µM)	–	–
COc1cc([C@@H]2c3cc4c(cc3[C@@H](O[C@@H]3O[C@@H]5CO[C@@H](C)O[C@H]5[C@H](O)[C@H]3O)[C@H]3CN(N=C(C)C)C(=O)[C@H]23)OCO4)cc(OC)c1O (relative stereo) [Example 8, 6H-Pyrrolo[3',4':6,7]naphtho[2,3-d]-1,3-dioxole-6-one, 5,5,a,7,8,8a,9-hexahydro-9-[(4,6-O-ethylidene-β-D-glucopyranosyl)oxy]-5-[(4-hydroxy-3,5-dimethoxy)phenyl]-7-[(2-propylidene)amino]-, [5 R-[5α,5aβ,8aα,9β(R*)]-]	43.2 (≈ 67.3 µM)	61.29 µg/mL and 74.21 µg/mL	69.4 (≈ 108 µM)	78.90 µg/mL and 108.89 µg/mL	103 (≈ 160 µM)	–	91.26 µg/mL and 123.63 µg/mL and > 250 µg/mL	> 250	–	96.26 µg/mL (≈ 150 µM)	–
COc1cc([C@@H]2c3cc4c(cc3[C@@H](O[C@@H]3O[C@@H]5CO[C@@H](C)O[C@H]5[C@H](O)[C@H]3O)[C@H]3CN(N=Cc5ccccc5)C(=O)[C@H]23)OCO4)cc(OC)c1O [Example 3, 6H-Pyrrolo[3',4':6,7]naphtho[2,3-d]-1,3-dioxole-6-one, 5,5a,7,8,8a,9-hexahydro-9-[(4,6-O-ethylidene-β-D-glucopyranosyl)oxy]-5-[(4-hydroxy-3,5-dimethoxy)phenyl]-7-[(phenylmethylene)amino][5R-[5α,5aβ,8aα,9β(R*)]-]	10.3 (≈ 15 µM)	17.80 µg/mL (≈ 25.8 µM)	23.8 (≈ 34.4 µM)	20.04 µg/mL (≈ 29 µM)	38.3 (≈ 55.5 µM)	56.4 (≈ 81.7 µM)	73.81 µg/mL (≈ 107 µM)	36.5 (≈ 52.8 µM)	48.73 µg/mL (≈ 70.6 µM)	42.37 µg/mL (≈ 61.3 µM)	–
COc1cc([C@@H]2c3cc4c(cc3[C@@H](O[C@@H]3O[C@@H]5CO[C@@H](C)O[C@H]5[C@H](O)[C@H]3O)[C@H]3CN(NCc5ccccc5)C(=O)[C@H]23)OCO4)cc(OC)c1O [Example 4, 6H-Pyrrolo[3',4':6,7]naphtho[2,3-d]-1,3-dioxole-6-one, 5,5a,7,8,8a,9-hexahydro-9-[(4,6-O-ethylidene-β-D-glucopyranosyl)oxy]-5-[(4-hydroxy-3,5-dimethoxy)phenyl]-7-[(phenylmethyl)amino]-, [5R-[5α,5aβ,8aα,9β(R*)]-]	73.4 (≈ 106 µM)	95.19 µg/mL (≈ 137 µM)	105 (≈ 151 µM)	113.88 µg/mL (≈ 164 µM)	> 250	–	122.94 µg/mL and > 250 µg/mL	> 250	–	–	–
COc1cc([C@@H]2c3cc4c(cc3[C@@H](O[C@@H]3O[C@@H]5CO[C@@H](C)O[C@H]5[C@H](O)[C@H]3O)[C@H]3CNC(=O)[C@H]23)OCO4)cc(OC)c1O [Example 5, 6H-Pyrrolo[3',4':6,7]naphtho[2,3-d]-1,3-dioxole-6-one,5,5a,7,8,8a,9-hexahydro-9-[(4,6-O-ethylidene-β-D-glucopyranosyl)oxy]-5-[(4-hydroxy-3,5-dimethoxy)phenyl]-, [5R-[5α,5aα,8aα, 9β(R*)]-]	–	27.92 µg/mL and 72.27 µg/mL	56.1 (≈ 95.5 µM)	66.52 µg/mL (≈ 113 µM)	103 (≈ 175 µM)	81.1 (≈ 138 µM)	102.51 µg/mL (≈ 174 µM)	107 (≈ 183 µM)	123.53 µg/mL (≈ 210 µM)	111.78 µg/mL (≈ 190 µM)	–
COc1cc([C@@H]2c3cc4c(cc3[C@@H](O[C@@H]3O[C@@H]5CO[C@@H](C)O[C@H]5[C@H](O)[C@H]3O)[C@H]3CN(N=Cc5ccc([N+](=O)[O-])cc5)C(=O)[C@H]23)OCO4)cc(OC)c1O [Example 6, 6H-Pyrrolo[3',4':6,7]naphtho[2,3-d]-1,3-dioxole-6-one, 5,5a,7,8,8a,9-hexahydro-9-[(4,6-O-ethylidene-δ-D-glucopyranosyl)oxy]-5-[(4-hydroxy-3,5-dimethoxy)phenyl]-7-[[(4-nitrophenyl)methylene]amino], [5R-[5α,5aβ,8aα,9β(R*)]-]	–	7.73 µg/mL and 16.11 µg/mL	83.6 (≈ 114 µM)	60.66 µg/mL (≈ 82.5 µM)	> 250	> 250	–	> 250	–	–	–
CCCCCCCC=NN1C[C@H]2[C@H](C1=O)[C@H](c1cc(OC)c(O)c(OC)c1)c1cc3c(cc1[C@H]2O[C@@H]1O[C@@H]2CO[C@@H](C)O[C@H]2[C@H](O)[C@H]1O)OCO3 [Example 9, 6H-Pyrrolo[3',4':6,7]naphtho[2,3-d]-1,3-dioxole-6-one, 5,5a,7,8,8a,9-hexahydro-9-[(4,6-O-ethylidene-β-D-glucopyranosyl)oxy]-5-[(4-hydroxy-3,5-dimethoxy)phenyl]-7-[(octylidene)amino]-, [5R-[5α,5aβ,8aα,9β(R*)]-]	6.64 (≈ 9.32 µM)	6.70 µg/mL and 10.21 µg/mL	–	3.39 µg/mL and 4.68 µg/mL and 16.63 µg/mL	–	11.5 (≈ 16.1 µM)	15.09 µg/mL and 15.98 µg/mL	–	21.21 µg/mL and 52.18 µg/mL and 95.53 µg/mL	6.85 µg/mL and 23.65 µg/mL	–
CCCCCCCC(=O)Oc1c(OC)cc([C@@H]2c3cc4c(cc3[C@@H](O[C@@H]3O[C@@H]5CO[C@@H](C)O[C@H]5[C@H](O)[C@H]3O)[C@H]3CN(N=Cc5ccccc5)C(=O)[C@H]23)OCO4)cc1OC [Example 10, 6H-Pyrrolo[3',4':6,7]naphtho[2,3-d]-1,3-dioxole-6-one, 5,5a,7,8,8a,9-hexahydro-9-[(4,6-O-ethylidene-β-D-glucopyranosyl)oxy]-5-[(3,5-dimethoxy-4-octanoyloxy)phenyl]-7-[(phenylmethylene)amino]-, [5R-[5α,5aβ,8aα, 9β(R*)]-]	23.6 (≈ 29 µM)	16.76 µg/mL (≈ 20.5 µM)	17.3 (≈ 21.1 µM)	16.05 µg/mL (≈ 19.6 µM)	25.6 (≈ 31.3 µM)	25.6 (≈ 31.3 µM)	16.38 µg/mL (≈ 20.1 µM)	21.2 (≈ 26 µM)	19.82 µg/mL (≈ 24.3 µM)	13.50 µg/mL (≈ 16.5 µM)	1
CCCCCCCC(=O)Oc1c(OC)cc([C@@H]2c3cc4c(cc3[C@@H](O[C@@H]3O[C@@H]5CO[C@@H](C)O[C@H]5[C@H](O)[C@H]3O)[C@H]3CNC(=O)[C@H]23)OCO4)cc1OC [Example 11, 6H-Pyrrolo[3',4':6,7]naphtho[2,3-d]-1,3-dioxole-6-one, 5,5a,7,8,8a,9-hexahydro-9[(4,6-O-ethylidene-β-D-glucopyranosyl)oxy]-5-[(3,5-dimethoxy-4-octanoyloxy)phenyl], [5R-[5α,5aβ,8aα,9β(R*)]-]	21 (≈ 29.4 µM)	20.69 µg/mL (≈ 29 µM)	17.3 (≈ 24.2 µM)	18.33 µg/mL (≈ 25.7 µM)	18.7 (≈ 26.2 µM)	20.2 (≈ 28.3 µM)	25.92 µg/mL (≈ 36.3 µM)	12.3 (≈ 17.3 µM)	12.48 µg/mL (≈ 17.5 µM)	25.22 µg/mL (≈ 35.3 µM)	1
